Values of other authors, collected in patent US10926237B2, “Soluble corrosion resistant sol-gel” (THE BOEING COMPANY, priority 2018, dated 2021).

In the case of `Sc1nnc(S)s1` [2,5-Dimercapto-1,3,4-thiadiazole, 2,5-dimercapto-1,3,4-thiadiazole], the “water solubility (in words)” value is given as “water soluble”.
